# Laboratory results taken from PubChem BioAssay (NCI).
#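 Dose response: 5 concentrations. Exposure: 48 h. Format: 96-well plates. Endpoint: linear interpolation; highest concentration if not reached. TGI marks complete inhibition of growth.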
# Columns and labels:
# Assay in all cases: NCI-60 cell line screen, 48 h
# 786-0 renal = system: 786-0 renal
# A498 renal = system: A498 renal
# A549 NSCLC = system: A549 NSCLC
# ACHN renal = system: ACHN renal
# BT-549 breast = system: BT-549 breast
# CAKI-1 renal = system: CAKI-1 renal
# CCRF-CEM leukemia = system: CCRF-CEM leukemia
# COLO 205 colon = system: COLO 205 colon
# DLD-1 colon = system: DLD-1 colon
# DMS 114 small cell lung = system: DMS 114 small cell lung
# DMS 273 small cell lung = system: DMS 273 small cell lung
# DU-145 prostate = system: DU-145 prostate
# EKVX NSCLC = system: EKVX NSCLC
# HCC-2998 colon = system: HCC-2998 colon
# HCT-116 colon = system: HCT-116 colon
# HL-60(TB) leukemia = system: HL-60(TB) leukemia
# HOP-18 NSCLC = system: HOP-18 NSCLC
# HOP-62 NSCLC = system: HOP-62 NSCLC
# HOP-92 NSCLC = system: HOP-92 NSCLC
# HT29 colon = system: HT29 colon
# IGROV1 ovarian = system: IGROV1 ovarian
# K-562 leukemia = system: K-562 leukemia
# KM12 colon = system: KM12 colon
# KM20L2 colon = system: KM20L2 colon
# LOX IMVI melanoma = system: LOX IMVI melanoma
# LXFL 529 NSCLC = system: LXFL 529 NSCLC
# M14 melanoma = system: M14 melanoma
# MALME-3M melanoma = system: MALME-3M melanoma
# MCF7 breast = system: MCF7 breast
# MDA-MB-231 breast = system: MDA-MB-231 breast
# MDA-MB-435 = system: MDA-MB-435
# MDA-N = system: MDA-N
# MOLT-4 leukemia = system: MOLT-4 leukemia
# NCI-H226 lung = system: NCI-H226 lung
# NCI-H23 lung = system: NCI-H23 lung
# NCI-H522 lung = system: NCI-H522 lung
# NCI/ADR-RES ovarian = system: NCI/ADR-RES ovarian
# OVCAR-3 ovarian = system: OVCAR-3 ovarian
# OVCAR-4 ovarian = system: OVCAR-4 ovarian
# OVCAR-5 ovarian = system: OVCAR-5 ovarian
# OVCAR-8 ovarian = system: OVCAR-8 ovarian
# PC-3 prostate = system: PC-3 prostate
# RPMI-8226 leukemia = system: RPMI-8226 leukemia
# RXF 393 renal = system: RXF 393 renal
# SF-268 CNS = system: SF-268 CNS
# SF-295 CNS = system: SF-295 CNS
# SF-539 CNS = system: SF-539 CNS
# SK-MEL-2 melanoma = system: SK-MEL-2 melanoma
# SK-MEL-28 melanoma = system: SK-MEL-28 melanoma
# SK-MEL-5 melanoma = system: SK-MEL-5 melanoma
# SK-OV-3 ovarian = system: SK-OV-3 ovarian
# SN12C renal = system: SN12C renal
# SNB-19 CNS = system: SNB-19 CNS
# SNB-75 CNS = system: SNB-75 CNS
# SNB-78 CNS = system: SNB-78 CNS
# SR leukemia = system: SR leukemia
# SW-620 colon = system: SW-620 colon
# T-47D breast = system: T-47D breast
# TK-10 renal = system: TK-10 renal
# U251 CNS = system: U251 CNS
# UACC-257 melanoma = system: UACC-257 melanoma
# UACC-62 melanoma = system: UACC-62 melanoma
# UO-31 renal = system: UO-31 renal
# XF 498 CNS = system: XF 498 CNS
# HCT-15 colon = system: HCT-15 colon
# M19-MEL melanoma = system: M19-MEL melanoma
# NCI-H460 lung = system: NCI-H460 lung
# RXF-631 renal = system: RXF-631 renal
structure (smiles),measurement,setting,value
CCN(CC)CCCNc1ncc(C)c2c1c1ccc3c(O)cccc3c1n2C,TGI,786-0 renal,2.19 µM
same,TGI,A498 renal,32 µM
same,TGI,A549 NSCLC,2.34 µM
same,TGI,ACHN renal,12.8 µM
same,TGI,BT-549 breast,4.05 µM
same,TGI,CAKI-1 renal,3.4 µM
same,TGI,CCRF-CEM leukemia,6.1 µM
same,TGI,COLO 205 colon,17.5 µM
same,TGI,DLD-1 colon,3.85 µM
same,TGI,DMS 114 small cell lung,2.68 µM
same,TGI,DMS 273 small cell lung,2.14 µM
same,TGI,DU-145 prostate,3.79 µM
same,TGI,EKVX NSCLC,6.87 µM
same,TGI,HCC-2998 colon,4.31 µM
same,TGI,HCT-116 colon,2.28 µM
same,TGI,HL-60(TB) leukemia,5.07 µM
same,TGI,HOP-18 NSCLC,16.3 µM
same,TGI,HOP-62 NSCLC,2.58 µM
same,TGI,HOP-92 NSCLC,26.6 µM
same,TGI,HT29 colon,5.04 µM
same,TGI,IGROV1 ovarian,5.97 µM
same,TGI,K-562 leukemia,4.64 µM
same,TGI,KM12 colon,3.15 µM
same,TGI,KM20L2 colon,10.5 µM
same,TGI,LOX IMVI melanoma,2.64 µM
same,TGI,LXFL 529 NSCLC,3.06 µM
same,TGI,M14 melanoma,9.07 µM
same,TGI,MALME-3M melanoma,34.7 µM
same,TGI,MCF7 breast,2.06 µM
same,TGI,MDA-MB-231 breast,3.42 µM
same,TGI,MDA-MB-435,33.8 µM
same,TGI,MDA-N,3.01 µM
same,TGI,MOLT-4 leukemia,1.84 µM
same,TGI,NCI-H226 lung,26.2 µM
same,TGI,NCI-H23 lung,4.82 µM
same,TGI,NCI-H522 lung,2.29 µM
same,TGI,NCI/ADR-RES ovarian,> 100 µM
same,TGI,OVCAR-3 ovarian,18.2 µM
same,TGI,OVCAR-4 ovarian,3.45 µM
same,TGI,OVCAR-5 ovarian,11.8 µM
same,TGI,OVCAR-8 ovarian,3.5 µM
same,TGI,PC-3 prostate,2.16 µM
same,TGI,RPMI-8226 leukemia,> 23.9 µM
same,TGI,RXF 393 renal,9.41 µM
same,TGI,SF-268 CNS,36.6 µM
same,TGI,SF-295 CNS,4.76 µM
same,TGI,SF-539 CNS,14.9 µM
same,TGI,SK-MEL-2 melanoma,33.8 µM
same,TGI,SK-MEL-28 melanoma,17.5 µM
same,TGI,SK-MEL-5 melanoma,13.4 µM
same,TGI,SK-OV-3 ovarian,16.6 µM
same,TGI,SN12C renal,14.3 µM
same,TGI,SNB-19 CNS,3.17 µM
same,TGI,SNB-75 CNS,6.74 µM
same,TGI,SNB-78 CNS,> 61 µM
same,TGI,SR leukemia,1.78 µM
same,TGI,SW-620 colon,2.61 µM
same,TGI,T-47D breast,49.3 µM
same,TGI,TK-10 renal,22.9 µM
same,TGI,U251 CNS,2.6 µM
same,TGI,UACC-257 melanoma,31 µM
same,TGI,UACC-62 melanoma,49.2 µM
same,TGI,UO-31 renal,21.2 µM
same,TGI,XF 498 CNS,29.5 µM
CC(C)(C)C(=O)/C=C/c1cccc(Oc2ccccc2)c1,TGI,786-0 renal,30.7 µM
same,TGI,A498 renal,37.1 µM
same,TGI,A549 NSCLC,48.8 µM
same,TGI,ACHN renal,28.5 µM
same,TGI,CCRF-CEM leukemia,31 µM
same,TGI,DLD-1 colon,28.5 µM
same,TGI,EKVX NSCLC,35.9 µM
same,TGI,HCC-2998 colon,36.5 µM
same,TGI,HCT-116 colon,31 µM
same,TGI,HCT-15 colon,40.4 µM
same,TGI,HOP-18 NSCLC,30.2 µM
same,TGI,HOP-62 NSCLC,> 100 µM
same,TGI,HT29 colon,22.1 µM
same,TGI,IGROV1 ovarian,78 µM
same,TGI,K-562 leukemia,30.1 µM
same,TGI,KM12 colon,25.6 µM
same,TGI,KM20L2 colon,28.2 µM
same,TGI,LXFL 529 NSCLC,33.1 µM
same,TGI,M14 melanoma,34.7 µM
same,TGI,M19-MEL melanoma,54.2 µM
same,TGI,MALME-3M melanoma,36.2 µM
same,TGI,MOLT-4 leukemia,57.1 µM
same,TGI,NCI-H226 lung,33.4 µM
same,TGI,NCI-H460 lung,32.5 µM
same,TGI,NCI-H522 lung,29.8 µM
same,TGI,OVCAR-5 ovarian,32.8 µM
same,TGI,OVCAR-8 ovarian,27.8 µM
same,TGI,RPMI-8226 leukemia,22.5 µM
same,TGI,RXF 393 renal,30 µM
same,TGI,RXF-631 renal,> 100 µM
same,TGI,SF-295 CNS,25.8 µM
same,TGI,SF-539 CNS,40.2 µM
same,TGI,SK-MEL-2 melanoma,27.6 µM
same,TGI,SK-MEL-28 melanoma,34.1 µM
same,TGI,SK-MEL-5 melanoma,30.4 µM
same,TGI,SK-OV-3 ovarian,> 100 µM
same,TGI,SN12C renal,27.4 µM
same,TGI,SNB-19 CNS,30 µM
same,TGI,SNB-75 CNS,64.6 µM
same,TGI,SNB-78 CNS,48.1 µM
same,TGI,SR leukemia,> 100 µM
same,TGI,U251 CNS,23.5 µM
same,TGI,UACC-257 melanoma,28.4 µM
same,TGI,UO-31 renal,28.8 µM
same,TGI,XF 498 CNS,32.9 µM
